Experimental data reported in US20100093538A1, “Pseudomonas Bacterium” (priority 2008, published 2010).

Legend:
R. solani = format: cell-based; conditions: bioautography, Si gel scraped into agar plates inoculated with R. solani
[1] = test system: germinating lettuce seeds; experiment: Lettuce seed bioassay of EtOAC extracts of cell-free culture filtrates; conditions: IAA at 1 μg/ml

CC(=O)c1c(O)cc(O)c(C(C)=O)c1O [DAPG, 2,4-diacetylphloroglucinol]
Fungal inhibition (R. solani): Rhizoctonia

O=C(O)Cc1c[nH]c2ccccc12 [IAA, indole-3-acetic acid]
Effect on germination of lettuce seeds [1]: inhibits the germination of lettuce seeds

O=[N+]([O-])c1c(Cl)cccc1-c1c[nH]cc1Cl [PRN, 3-chloro-4-[2′ nitro-3′-chlorophenyl]pyrrole]
Fungal inhibition (R. solani): Rhizoctonia
